In PubChem BioAssay (NCI):
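GI50 is the concentration that inhibits growth by half. TGI: total growth inhibition.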

What was measured:
Experiment in all cases: NCI-60 cell line screen, 384-well format
SNB-75 CNS = test system: SNB-75 CNS
RXF 393 renal = test system: RXF 393 renal
BT-549 breast = test system: BT-549 breast
UACC-62 melanoma = test system: UACC-62 melanoma
MDA-MB-468 breast = test system: MDA-MB-468 breast
KM12 colon = test system: KM12 colon
OVCAR-3 ovarian = test system: OVCAR-3 ovarian
UACC-257 melanoma = test system: UACC-257 melanoma
SF-539 CNS = test system: SF-539 CNS
M14 melanoma = test system: M14 melanoma
A549 NSCLC = test system: A549 NSCLC
SF-295 CNS = test system: SF-295 CNS
HS 578T breast = test system: HS 578T breast
SNB-19 CNS = test system: SNB-19 CNS
SN12C renal = test system: SN12C renal
IGROV1 ovarian = test system: IGROV1 ovarian
MALME-3M melanoma = test system: MALME-3M melanoma
SF-268 CNS = test system: SF-268 CNS
SK-MEL-5 melanoma = test system: SK-MEL-5 melanoma
T-47D breast = test system: T-47D breast
HOP-62 NSCLC = test system: HOP-62 NSCLC
A498 renal = test system: A498 renal
SW-620 colon = test system: SW-620 colon
NCI-H23 lung = test system: NCI-H23 lung
HL-60(TB) leukemia = test system: HL-60(TB) leukemia
HT29 colon = test system: HT29 colon
NCI-H322M lung = test system: NCI-H322M lung
NCI-H522 lung = test system: NCI-H522 lung
HOP-92 NSCLC = test system: HOP-92 NSCLC
MOLT-4 leukemia = test system: MOLT-4 leukemia
SK-MEL-28 melanoma = test system: SK-MEL-28 melanoma
HCT-15 colon = test system: HCT-15 colon
OVCAR-4 ovarian = test system: OVCAR-4 ovarian
HCC-2998 colon = test system: HCC-2998 colon
CAKI-1 renal = test system: CAKI-1 renal
CCRF-CEM leukemia = test system: CCRF-CEM leukemia
DU-145 prostate = test system: DU-145 prostate
K-562 leukemia = test system: K-562 leukemia
OVCAR-8 ovarian = test system: OVCAR-8 ovarian
EKVX NSCLC = test system: EKVX NSCLC
U251 glioblastoma = test system: U251 glioblastoma
RPMI-8226 leukemia = test system: RPMI-8226 leukemia
PC-3 prostate = test system: PC-3 prostate

`COc1cc(F)ccc1-c1cc(Nc2cc(CS(C)(=N)=O)ccn2)ncc1F` (stereo unspecified) was tested. Which GI50 (SNB-75 CNS) did it give?
The GI50 was 50.9 nM.

And the TGI (SNB-75 CNS)?
Its TGI is 201 nM.

And the GI50 (RXF 393 renal)?
The GI50 was 16 nM.

What about the TGI (RXF 393 renal) of the same molecule?
The TGI was 37.6 nM.

What about the GI50 (BT-549 breast) of the same molecule?
Its GI50 is 26.2 nM.

And the TGI (BT-549 breast)?
The TGI was 74 nM.

What about the GI50 (UACC-62 melanoma) of the same molecule?
The GI50 was 17.1 nM.

What about the TGI (UACC-62 melanoma) of the same molecule?
Its TGI is 49.2 nM.

What about the GI50 (MDA-MB-468 breast) of the same molecule?
Its GI50 is 58.7 nM.

What about the TGI (MDA-MB-468 breast) of the same molecule?
Its TGI is 193 nM.

What about the GI50 (KM12 colon) of the same molecule?
Its GI50 is 23.7 nM.

What about the TGI (KM12 colon) of the same molecule?
The TGI was 73.5 nM.

And the GI50 (OVCAR-3 ovarian)?
The GI50 was 24.2 nM.

What about the TGI (OVCAR-3 ovarian) of the same molecule?
Its TGI is 80.1 nM.

And the GI50 (UACC-257 melanoma)?
The GI50 was 104 nM.

What about the TGI (UACC-257 melanoma) of the same molecule?
The TGI was 251 nM.

What about the GI50 (SF-539 CNS) of the same molecule?
The GI50 was 26.3 nM.

What about the TGI (SF-539 CNS) of the same molecule?
Its TGI is 69 nM.

What about the GI50 (M14 melanoma) of the same molecule?
The GI50 was 34.7 nM.

And the TGI (M14 melanoma)?
The TGI was 157 nM.

What about the GI50 (A549 NSCLC) of the same molecule?
The GI50 was 42.9 nM.

And the TGI (A549 NSCLC)?
Its TGI is > 100000 nM.

What about the GI50 (SF-295 CNS) of the same molecule?
Its GI50 is 35.3 nM.

What about the TGI (SF-295 CNS) of the same molecule?
The TGI was 180 nM.

What about the GI50 (HS 578T breast) of the same molecule?
The GI50 was 15.5 nM.

And the TGI (HS 578T breast)?
Its TGI is 41.6 nM.

What about the GI50 (SNB-19 CNS) of the same molecule?
Its GI50 is 44.6 nM.

What about the TGI (SNB-19 CNS) of the same molecule?
The TGI was > 100000 nM.

What about the GI50 (SN12C renal) of the same molecule?
The GI50 was 23.3 nM.

And the TGI (SN12C renal)?
Its TGI is 121 nM.

What about the GI50 (IGROV1 ovarian) of the same molecule?
Its GI50 is 33.7 nM.

What about the TGI (IGROV1 ovarian) of the same molecule?
The TGI was > 100000 nM.

And the GI50 (MALME-3M melanoma)?
The GI50 was 50.3 nM.

And the TGI (MALME-3M melanoma)?
Its TGI is 178 nM.

And the GI50 (SF-268 CNS)?
Its GI50 is 17.1 nM.

What about the TGI (SF-268 CNS) of the same molecule?
The TGI was 44.5 nM.

What about the GI50 (SK-MEL-5 melanoma) of the same molecule?
The GI50 was 28.3 nM.

What about the TGI (SK-MEL-5 melanoma) of the same molecule?
Its TGI is 109 nM.

And the GI50 (T-47D breast)?
The GI50 was 46.2 nM.

And the TGI (T-47D breast)?
The TGI was > 100000 nM.

What about the GI50 (HOP-62 NSCLC) of the same molecule?
The GI50 was 18.3 nM.

What about the TGI (HOP-62 NSCLC) of the same molecule?
Its TGI is 45.5 nM.

And the GI50 (A498 renal)?
The GI50 was 27 nM.

And the TGI (A498 renal)?
The TGI was > 100000 nM.

What about the GI50 (SW-620 colon) of the same molecule?
Its GI50 is 43.7 nM.

What about the TGI (SW-620 colon) of the same molecule?
Its TGI is 475 nM.

And the GI50 (NCI-H23 lung)?
Its GI50 is 30.4 nM.

And the TGI (NCI-H23 lung)?
Its TGI is 130 nM.

What about the GI50 (HL-60(TB) leukemia) of the same molecule?
The GI50 was 15.4 nM.

What about the TGI (HL-60(TB) leukemia) of the same molecule?
The TGI was 29.4 nM.

What about the GI50 (HT29 colon) of the same molecule?
The GI50 was 65.1 nM.

And the TGI (HT29 colon)?
Its TGI is 257 nM.

What about the GI50 (NCI-H322M lung) of the same molecule?
The GI50 was 29.2 nM.

And the TGI (NCI-H322M lung)?
The TGI was 134 nM.

What about the GI50 (NCI-H522 lung) of the same molecule?
Its GI50 is 149 nM.

And the TGI (NCI-H522 lung)?
Its TGI is 385 nM.

What about the GI50 (HOP-92 NSCLC) of the same molecule?
The GI50 was 62.9 nM.

And the TGI (HOP-92 NSCLC)?
Its TGI is 46000 nM.

What about the GI50 (MOLT-4 leukemia) of the same molecule?
Its GI50 is 27.3 nM.

What about the TGI (MOLT-4 leukemia) of the same molecule?
Its TGI is 89.1 nM.

And the GI50 (SK-MEL-28 melanoma)?
The GI50 was 30.4 nM.

What about the TGI (SK-MEL-28 melanoma) of the same molecule?
Its TGI is 167 nM.

What about the GI50 (HCT-15 colon) of the same molecule?
The GI50 was 38.7 nM.

And the TGI (HCT-15 colon)?
Its TGI is > 100000 nM.

What about the GI50 (OVCAR-4 ovarian) of the same molecule?
Its GI50 is 165 nM.

What about the TGI (OVCAR-4 ovarian) of the same molecule?
Its TGI is 889 nM.

What about the GI50 (HCC-2998 colon) of the same molecule?
Its GI50 is 37.9 nM.

And the TGI (HCC-2998 colon)?
Its TGI is 207 nM.

And the GI50 (CAKI-1 renal)?
Its GI50 is 28.2 nM.

And the TGI (CAKI-1 renal)?
Its TGI is > 100000 nM.

What about the GI50 (CCRF-CEM leukemia) of the same molecule?
The GI50 was 17.6 nM.

What about the TGI (CCRF-CEM leukemia) of the same molecule?
The TGI was 36.2 nM.

And the GI50 (DU-145 prostate)?
Its GI50 is 29.1 nM.

What about the TGI (DU-145 prostate) of the same molecule?
Its TGI is 92.5 nM.

What about the GI50 (K-562 leukemia) of the same molecule?
Its GI50 is 136 nM.

What about the TGI (K-562 leukemia) of the same molecule?
The TGI was 567 nM.

What about the GI50 (OVCAR-8 ovarian) of the same molecule?
The GI50 was 30.5 nM.

What about the TGI (OVCAR-8 ovarian) of the same molecule?
The TGI was 112 nM.

And the GI50 (EKVX NSCLC)?
Its GI50 is 73.9 nM.

What about the TGI (EKVX NSCLC) of the same molecule?
Its TGI is 498 nM.

And the GI50 (U251 glioblastoma)?
Its GI50 is 43.3 nM.

And the TGI (U251 glioblastoma)?
The TGI was > 100000 nM.

And the GI50 (RPMI-8226 leukemia)?
The GI50 was 41 nM.

What about the TGI (RPMI-8226 leukemia) of the same molecule?
The TGI was 138 nM.

And the GI50 (PC-3 prostate)?
The GI50 was 39.9 nM.

What about the TGI (PC-3 prostate) of the same molecule?
The TGI was 250 nM.
